According to patent US6630570B1, “Short-chain peptide-dye conjugates as contrast media for optical diagnosis” (priority 1999, dated 2003):
Entries after “also recorded” stand apart in the source; their conditions may differ. No end group written: not given here.

Key:
HT29-tumor = experiment: In-vivo fluorescence imaging in tumor-carrying nude mice, HT29 tumor; conditions: 0.1 μmol/kg intravenously, one hour after administration
Excerpt: The imaging properties of the compounds according to the invention were studied in vivo after injection into tumor-carrying nude mice. […] The fluorescence of the substances was excited by irradiation of animals with near-infrared light of wavelength 640 nm (indodicarbocyanines) or 740 nm (indotricarbocyanines), which was produced with an Nd:YAG laser. The fluorescence radiation was detected at a wavelength of >700 nm or >800 nm by an intensified CCD-camera, and the fluorescence images were stored digitally.

RIN38-VIP1-cells = experiment: Cell imaging by fluorescence microscopy, RIN38-VIP1 cells; type: cell-based, rat; conditions: 10 μM
Method: (§1) The binding and imaging of the compounds according to the invention were studied in vitro in human tumor cells, and the receptors for vaso-active intestinal peptide and/or somatostatin and/or neurotensin were expressed. To this end, 5×10^5 tumor cells were incubated in 1.5 ml of medium, which contained the test substance. Different concentrations of the substances (10 nM-10 μM) were used, and the incubation period varied (1 minute-24 hours). After the incubation, the cells were set, and microscopic preparations were produced. The evaluation was carried out on a Zeiss Axiovert 135-fluorescence microscope, which was equipped with a Cy7-(Exciter HQ 710/70 nm, emitter 810/90 nm, beam splitter 750 nm LP), Cy5-(exciter 575-625 nm, emitter 660-710 nm BP, beam splitter 645 nm) and Cy3-filter set (exciter 546/12 nm, emitter 590 nm LP, beam splitter 580 nm). From all preparations, white light and fluorescence images were recorded with a CCD-camera (Visitron RTE/CCD-576) and digitally stored.

HT29 cells = experiment: Cell imaging by fluorescence microscopy, HT29 cells; type: cell-based, human; conditions: 10 μM, 30 minutes of incubation, Cy7-filter set
Method: as §1

Substance: (ξ-Amino-indotricarbocyanine)-Lys^25-VIP (14-25)-conjugate (RKQMAVKKYLNK(indotricarbocyanine)) [conjugate 24]
- increase in fluorescence intensity in the tumor relative to the contralateral flank (HT29-tumor; HT29 tumor in right rear flank): ~1.5 fold
- fluorescence outside the tumor (remainder of the body, kidneys) (HT29-tumor; HT29 tumor mouse): increased fluorescence signal in the kidneys
- fluorescence image of the cells (pattern, correlation with white light image) (RIN38-VIP1-cells; Cy7-filter set): homogeneous, intracellular near-nucleus fluorescence

Substance: Indocarbocyanine-VIP (1-28)-conjugate (HSDAVFTDNYTRLRKQMAVKKYLNSILN; ends and bridges not checked; also: indocarbocyanine conjugate, position not given here) [conjugate 14]
- fluorescence image of the cells (pattern) (RIN38-VIP1-cells; Cy3-filter set): intracellular fluorescence areas with a vesicular pattern in the membrane area of the cell

Substance: Indotricarbocyanine-D-VIP (14-24)-conjugate (RKQMAVKKYLN; not fully specified; also: indotricarbocyanine dye conjugate, attachment site not given here) [conjugate 25]
- fluorescence image of the cells (pattern, correlation with white light image) (HT29 cells): Fluorescence dispersed homogeneously over the cells, good correlation with the white light image

Substance: Indotricarbocyanine-VIP (1-28)-conjugate (HSDAVFTDNYTRLRKQMAVKKYLNSILN; ends and bridges not checked; also: indotricarbocyanine conjugate, position not given here) [conjugate 16]
- fluorescence image of the cells (pattern, correlation with white light image) (HT29 cells): largely homogeneous fluorescence dispersed over the cells; also recorded: areas of increased signals were visible, which can be associated with vesicular compartments
